Reference: patent US20240366553A1, “ASPARTIC ACID COPPER COMPLEX, AND USE THEREOF” (GUANGZHOU INSIGHTER BIOTECHNOLOGY CO., LTD., priority 2021, published 2024)
Read-outs that look alike come from different tables or passages of the source.

How the values were obtained:
[1] = system: Lingnan yellow-feathered, fast-growing, and large-sized broilers; settings: for Average feed consumption / Average weight gain / Feed-to-meat ratio / Survival rate (%) / Relative weight gain rate (%): broilers aged 1 to 21 days; for Relative weight gain rate (%): relative to control group; for Physical characteristics of the experimental chickens: experimental groups of compounds 1-7
Excerpt: (§1) Experimental animals: 900 one-day-old Lingnan yellow-feathered, fast-growing, and large-sized broilers; 150 weaned piglets;
(§2) Feeds: basal feed for chickens and basal feed for pigs that contain no antimicrobial drugs, copper sources and growth promoters;
(§3) Experimental samples: compound 1, compound 2, compound 3, compound 4, compound 5, compound 6, compound 7,
900 one-day-old Lingnan yellow-feathered, fast-growing, and large-sized broilers were randomly divided into 18 groups (50 broilers/group). […] The broilers had free access to food. The weight gain and feed conversion of the experimental chickens (aged from 1 to 21 days) in each experimental group were recorded.

[2] = system: weaned piglets; settings: for Average weight gain / Feed-to-meat ratio / Survival rate (%) / Total feed consumption / Total weight gain / Relative weight gain rate (%): weaned piglets, 30 days; for Total feed consumption / Total weight gain: 10 pigs; for Relative weight gain rate (%): control group = 100; for Improvement in the feed conversion of the experimental pigs compared with compound 4: used at the same doses (50 mg/kg)
Excerpt: as §1, §2, §3
150 weaned piglets were grouped according to Table 2 (10 piglets/group). […] The piglets had free access to food. The weight gain and feed conversion of the experimental pigs in each experimental group were recorded within 30 days after […] weaning.

[3] = system: black carp (subyearlings); assay: Use of aspartic acid copper complex in aquaculture feeds (black carp breeding experiment); type: in vivo; settings: 30 mg/kg in feed (as copper ions), 8 weeks
Procedure: Experimental fishes: The experimental fishes used were black carp (subyearlings), which were provided by the Dafeng fish nursery (Huizhou city, Guangdong province). Healthy and active fingerling black carps (uniform in size) were fed for 4 weeks in a big net cage (4×2×1.5 m^3) and then the formal breeding experiment was carried out. The experimental systems were small floating net cages (1.1×1.1×1.1 m^3 in size). Each small net cage was provided with an air-filling head, which allowed for continuous inflation of the cages for 24 h a day. The small net cages and the acclimatization net cage were all placed in a 3500 m^2 pond in the experimental field. […] During the trial, 480 black carps (fasted for 1 d) were randomly divided into 10 groups, with 4 replicates for each group and 12 fishes in each replicate. After weighing as a whole, the black carps were randomly placed into […] and fed with different experimental feeds.
Experimental feeds: The experimental feeds were formulated following the formula in Table 5. According to Table 6, different copper element supplements (calculated based on the copper ions) were added to the feeds in different experimental groups, respectively. The feed raw materials were subjected to ultrafine grinding and then granulated into floating expanded feeds (3 mm) using an expansion machine from Jiangsu Muyang Corporation. The demolding temperature was 130° C. 3% soybean oil was externally sprayed using an oil spraying device. The finished product was sealed and stored in a cool place for later use.
Experimental management: During the trial, the carps were manually fed in a restricted dose. The feeding dose was adjusted once a week, and the doses for all groups (based on the initial body weight) were completely consistent. The carps were fed twice a day (at 7:30 and 15:00). The experiment lasted for 8 weeks. During the trial, the water quality was regularly monitored, and throughout the breeding, the water temperature was kept at 26.88±3.08° C., DO>5.0 mg O L^−1, pH 7.8, ammonia nitrogen<0.50 mg NL^−1, and nitrite-nitrogen<0.05 mg N L^−1.
Parametric statistics: During the trial, the carps in each net cage were weighed as a whole one day after discontinuation of feeding, and the average weight gain (g) and feed-to-meat ratio were calculated. The calculation formulas are as follows:
Average weight gain (g)=Average final weight−Average initial weight; Feed-to-meat ratio=Food intake/Weight gain of fishes;

[4] = 5 mg/kg in feed (as copper ion)
[5] = 50 mg/kg in feed (as copper ion)
[6] = 100 mg/kg in feed (as copper ion)
[7] = 200 mg/kg in feed (as copper ion)
[8] = 300 mg/kg in feed (as copper ion)
[9] = group 1-30: 30 mg/kg in feed (as copper ion)
[10] = 8 mg/kg in feed (as copper ion)
[11] = group 1-200: 200 mg/kg in feed (as copper ion)

## N[C@@H](CC(=O)[O-])C(=O)[O-].O.O.[Cu+2] [Compound 1, [(Cu(II))(L-Asp)(H2O)2]]
[1]; [4]
  Average feed consumption: 916 g
  Average weight gain: 497 g
  Feed-to-meat ratio: 1.843
  Survival rate (%): 100%
  Relative weight gain rate (%): 104.9%
[1]; [5]
  Average feed consumption: 923 g
  Average weight gain: 518 g
  Feed-to-meat ratio: 1.782
  Survival rate (%): 100%
  Relative weight gain rate (%): 109.3%
[1]; [6]
  Average feed consumption: 970 g
  Average weight gain: 546 g
  Feed-to-meat ratio: 1.777
  Survival rate (%): 100%
  Relative weight gain rate (%): 115.2%
[1]; [7]
  Average feed consumption: 1004 g
  Average weight gain: 567 g
  Feed-to-meat ratio: 1.771
  Survival rate (%): 100%
  Relative weight gain rate (%): 119.6%
[1]; [8]
  Average feed consumption: 926 g
  Average weight gain: 526 g
  Feed-to-meat ratio: 1.760
  Survival rate (%): 100%
  Relative weight gain rate (%): 111.0%
[1]; addition amount of 50-100 mg/kg
  Dose effect in the experimental results (broilers): exhibited a dose effect
[1]
  Physical characteristics of the experimental chickens: normal physical characteristics
[1]; [9]
  Average feed consumption: 919 g
  Average weight gain: 511 g
  Feed-to-meat ratio: 1.798
  Survival rate (%): 100%
  Relative weight gain rate (%): 107.8%
[2]; [10]
  Average weight gain: 11.26 kg
  Feed-to-meat ratio: 2.268
  Survival rate (%): 100%
  Total feed consumption: 255.34 kg
  Total weight gain: 112.6 kg
  Relative weight gain rate (%): 103.30%
[2]; [5]
  Average weight gain: 12.12 kg
  Feed-to-meat ratio: 2.121
  Survival rate (%): 100%
  Total feed consumption: 257.08 kg
  Total weight gain: 121.2 kg
  Relative weight gain rate (%): 111.19%
[2]; [6]
  Average weight gain: 12.21 kg
  Feed-to-meat ratio: 2.112
  Survival rate (%): 100%
  Total feed consumption: 257.86 kg
  Total weight gain: 122.1 kg
  Relative weight gain rate (%): 112.02%
[2]; 8-200 mg/kg groups
  Dose effect on improving the production performance of the experimental pigs: exhibited a dose effect
[2]; dose of 50 mg/kg, comparator copper sulfate 250 mg/kg
  Growth-promoting effect and feed conversion rate versus high-level copper sulfate group: close to those achieved in the high-level copper sulfate group
[2]; [9]
  Average weight gain: 11.66 kg
  Feed-to-meat ratio: 2.205
  Survival rate (%): 100%
  Total feed consumption: 257.09 kg
  Total weight gain: 116.6 kg
  Relative weight gain rate (%): 106.97%
[2]; [11]
  Average weight gain: 12.34 kg
  Feed-to-meat ratio: 2.093
  Survival rate (%): 100%
  Total feed consumption: 258.28 kg
  Total weight gain: 123.4 kg
  Relative weight gain rate (%): 113.21%
[2]
  Improvement in the feed conversion of the experimental pigs compared with compound 4: about 2 fold
[3]
  Average weight gain: 357 g
  Feed-to-meat ratio: 1.401

## N[C@@H](CC(=O)[O-])C(=O)[O-].O.O.[Cu+2] [Compound 2, [(Cu(II))(L-Asp)(H2O)2]. (H2O)0.34]
[1]; [5]
  Average feed consumption: 908 g
  Average weight gain: 509 g
  Feed-to-meat ratio: 1.783
  Survival rate (%): 100%
  Relative weight gain rate (%): 107.4%
[1]
  Physical characteristics of the experimental chickens: normal physical characteristics
[2]; [5]
  Average weight gain: 12.30 kg
  Feed-to-meat ratio: 2.116
  Survival rate (%): 100%
  Total feed consumption: 260.21 kg
  Total weight gain: 123.0 kg
  Relative weight gain rate (%): 112.8%
[2]
  Improvement in the feed conversion of the experimental pigs compared with compound 4: about 2 fold
[3]
  Average weight gain: 368 g
  Feed-to-meat ratio: 1.359

## N[C@@H](CC(=O)[O-])C(=O)[O-].O.O.[Cu+2] [Compound 3, [(Cu(II))(L-Asp)(H2O)2]·(H2O)0.62]
[1]; [5]
  Average feed consumption: 919 g
  Average weight gain: 514 g
  Feed-to-meat ratio: 1.788
  Survival rate (%): 100%
  Relative weight gain rate (%): 108.4%
[1]
  Physical characteristics of the experimental chickens: normal physical characteristics
[2]; [5]
  Average weight gain: 11.92 kg
  Feed-to-meat ratio: 2.114
  Survival rate (%): 100%
  Total feed consumption: 251.97 kg
  Total weight gain: 119.2 kg
  Relative weight gain rate (%): 109.4%
[2]
  Improvement in the feed conversion of the experimental pigs compared with compound 4: about 2 fold
[3]
  Average weight gain: 361 g
  Feed-to-meat ratio: 1.385
